Columns and labels:
Format in all cases: cell-based
[1] = system: NCI-H1650; assay: CellTiter-Glo 3D proliferation assay, NCI-H1650 spheroids; set-up: key to NCI-H1650 Span (Amax): —: constructs were tested and inactive; settings: 5 days; for IC50 / Emax: Homo sapiens, NCI-H1650, 120 h; for Emax: read-out: NCI-H1650 Span (Amax)
Outline: (§1)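 Both lines grown in RPMI-1640 + 10% FBS. COR-L105 plated flat at 1,000 cells/well overnight; NCI-H1650 grown as spheroids, 3,000 cells/well, 72 h. Compounds at 0.508 nM-10 μM final for 5 days, 37° C. ATP read by CellTiter-Glo (3D version for spheroids); IC50 from variable-slope fit normalized to untreated cells.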

[2] = system: COR-L105; assay: CellTiter-Glo proliferation assay, COR-L105; settings: Homo sapiens, COR-L105, 120 h, COR-L105, 5 days; for Emax: read-out: COR-L105 Span (max)
Outline: as §1

[3] = molecular target: T1, endogenous BCL-xL (Homo sapiens, UniProt Q07817); assay: Degradation of endogenous BCL-xL in COR-L105 (ProteinSimple Jess); settings: COR-L105, 24 h, COR-L105, dose 300 nM, read-out: % BCL-xL vs. Untreated, COR-L105
T1 construct: endogenous in cells; host or cells: COR-L105 (ECACC No. 92031918); NCI-H1650 (ATCC No. CRL-5883)
Protocol: The BCL-xL degrader low molecular weight compounds were tested against two endogenous cancer cell lines: • COR-L105: ECACC No. 92031918 cultured in RPMI-1640+10% FBS • NCI-H1650: (ATCC No. CRL-5883 cultured in RPMI-1640+10% FBS
The ability of the BCL-xL degrader low molecular weight compounds to degrade endogenous BCL-xL was assessed using the ProteinSimple 2-40 kDa Jess Separation Module.
Cell lines were cultured in media that is optimal for their growth at 5% CO2, 37° C. in a tissue culture incubator. Prior to seeding for the degradation assay, the cells were split at least 2 days before the assay to ensure optimal growth density. On the day of seeding, adherent cells were lifted off tissue culture flasks using 0.25% trypsin. Cell viability and cell density were determined using a cell counter (Vi-Cell XR Cell Viability Analyzer, Beckman Coulter). Cells with higher than 85% viability were seeded for the assay.
The COR-L105 and the NCI-H1650 cell line were seeded in 6-well clear TC-treated multiple well plates (Costar® cat. #3516). Cells were seeded at a density of 2,000,000 cells per well in 2.5 mL of standard growth media. Plates were incubated at 5% CO2, 37° C. overnight in a tissue culture incubator. On the day of dosing, BCL-xL degrader low molecular weight compounds and a BCL-xL inhibitor control were prepared at 6× in standard growth media. The prepared drug treatments were then added to the cells resulting in a final concentration of 100-300 nM and a final volume of 3.0 mL per well. A control well of untreated cells was also included in the study. Each drug concentration was tested in singlet. Plates were incubated at 5% CO2, 37° C. for 24 hours in a tissue culture incubator.
After 24 hours, the adherent cells were lifted off tissue culture plates using 0.25% trypsin. Standard growth media was added to quench the trypsin and centrifuged for 5 minutes at 1500 rpm. Cell pellets were washed once with cold PBS and centrifuged for 5 minutes at 1500 rpm. Cells were then washed with 1 mL cold PBS and transferred to a 1.5 mL eppendorf tube. Cells were centrifuged for 10 minutes at ≥10,000 g at 4° C. in a benchtop mini-centrifuge. The entire supernatant was discarded and cells were resuspended thoroughly in 50 μL of RIPA lysis buffer, generated by the manufacturer's protocol (ProteinSimple, Cat. #CBS401: Lysis Kit—RIPA Buffer for Charge Assays). Lysates were incubated on ice for 30 minutes. Following incubation, lysates were spun in a benchtop mini-centrifuge for 15 minutes at full speed at 4° C. Supernatant was carefully transferred to a new eppendorf tube for downstream analysis.
Protein was quantified using a Pierce™ BCA Protein Assay Kit (ThermoFisher, cat #23225) following the manufacturer's instructions. A standard curve was prepared by adding 25 μL of each concentration of reference samples from a Pierce™ Bovine Serum Albumin Standard Pre-Diluted Set (ThermoFisher, cat #23208). Each reference sample was run in duplicate. Testing samples were prepared by diluting cell lysates 1:5 in UltraPure™ DNase/RNase-Free Distilled Water and tested in duplicates of 25 μL each. The BCA working reagent was prepared by addition of 50 parts of BCA Reagent A with 1 part of BCA Reagent B. For each testing well, 200 μL of BCA working reagent was added. The plate was incubated at 37° C. for 30 minutes. A SpectraMax M Series Multi-Mode Microplate Reader was used to measure the absorbance at 562 nm. A standard curve generated by the Pierce™ Bovine Serum Albumin Standard Pre-Diluted Set was used to normalize and calculate the BCA concentration of cell lysates. Only values that fell within the range of the standard curve were accepted for quantification.
The ProteinSimple 2-40 kDa Jess Separation Module was used to detect BCL-xL degradation in treated versus untreated lysates following the manufacturer's instructions (25-Capillary Cartridge, 8 pack, 2-40 kDa, cat #SM W012). […]

[4] = molecular target: T2, Bcl-xL (Homo sapiens, UniProt Q07817); assay: HCT116 Bcl-xL degradation, capillary-based immunoassay (WES); settings: for DC50: HCT116, 24 h, 9-point serial dilution; for remaining activity at 0.01 µM / remaining activity at 0.1 µM: HCT-116, 24 h, % of untreated cells; for remaining activity at 0.01 µM: HCT116, 10 nM; for remaining activity at 0.1 µM: HCT116, 100 nM
T2 construct: Measured levels of Bcl-xL protein of HCT116 cells treated with the tested compounds; host or cells: HCT116
Outline: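 HCT116 cells treated 24 h with compound at 10/100 nM and/or 9-point dilution (quadruplicates), then lysed. Bcl-xL measured by capillary WES immunoassay, normalized to cofilin and expressed as % of untreated cells. DC50 from four-parameter curve fit.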

[5] = system: MOLT-4 cells; assay: MOLT-4 cell viability, MTT assay; settings: Homo sapiens, MOLT-4, 48 h
Outline: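 MOLT-4 cells in RPMI 1640 with 10% FBS were exposed to compounds for 48 h at 9 concentrations (3.16-fold dilutions, triplicates). After 4 h with MTT and overnight SDS/HCl solubilisation, absorbance was read at 540 nm. IC50 came from four-parameter fits versus control, as the mean of ≥2 independent experiments.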

[6] = system: MOLT-4 cells; assay: MOLT-4 cell viability, CTG assay; settings: MOLT-4, 48 h
Outline: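 Cells grown in RPMI 1640 with 10% FBS at 37° C, 5% CO2, then exposed to compounds for 48 h (11-point 5-fold dilution, triplicates). ATP measured by CellTiter-Glo luminescence; IC50 from four-parameter fit versus control, mean of ≥2 independent experiments.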

T2 sequence (Q07817 whole entry): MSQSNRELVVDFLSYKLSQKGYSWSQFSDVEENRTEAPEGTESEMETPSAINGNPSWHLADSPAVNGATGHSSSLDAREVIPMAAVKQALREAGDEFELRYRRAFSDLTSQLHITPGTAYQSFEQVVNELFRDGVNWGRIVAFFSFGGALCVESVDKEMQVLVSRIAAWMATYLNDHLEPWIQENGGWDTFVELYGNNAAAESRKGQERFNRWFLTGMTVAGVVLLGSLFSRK
T1 sequence (Q07817 whole entry): as above

SMILES	IC50 [1]	remaining activity at 0.3 µM [3]	DC50 [4]	remaining activity at 0.01 µM [4]	remaining activity at 0.1 µM [4]	IC50 [5]	IC50 [6]	Emax [1]	IC50 [2]	Emax [2]	NCI-H1650 Span (Amax) [1]
Cc1ncsc1-c1ccc([C@H](C)NC(=O)[C@@H]2C[C@@H](O)CN2C(=O)[C@@H](NC(=O)CN(C)CC(=O)N2CCN(CC#Cc3ccc(OCCCc4sc(N5CCCc6c5nnc(Nc5nc7ccccc7s5)c6C)nc4C(=O)O)c(F)c3)CC2)C(C)(C)C)cc1 [Example 36, 2-(3-(benzo[d]thiazol-2-ylamino)-4-methyl-6,7-dihydropyrido [2,3-c]pyridazin-8(5H)-yl)-5-(3-(2-fluoro-4-(3-(4-(N-(2-(((S)-1-((2S,4R)-4-hydroxy-2-(((S)-1-(4-(4-methylthiazol-5-yl)phenyl)ethyl)carbamoyl)pyrrolidin-1-yl)-3,3-dimethyl-1-oxobutan-2-yl)amino)-2-oxoethyl)-N-methylglycyl)piperazin-1-yl)prop-1-yn-1-yl)phenoxy)propyl) thiazole-4-carboxylic acid]	37.3 nM	> 90%						68.3%	296 nM	94.1%	
Cc1ncsc1-c1ccc(CNC(=O)C2C[C@@H](O)CN2C(=O)C(NC(=O)CCCCCC(=O)N2CCN(CCOC34CC5(C)CC(C)(CC(Cn6ncc(-c7ccc(N8CCCc9c8nnc(Nc8nc%10ccccc%10s8)c9C)nc7C(=O)O)c6C)(C5)C3)C4)CC2)C(C)(C)C)cc1 (stereo in doubt) [Example 22, 6-[3-(1,3-benzothiazol-2-ylamino)-4-methyl-6,7-dihydro-5H-pyrido[2,3-c]pyridazin-8-yl]-3-[1-[[3-[2-[4-[7-[[(1S)-1-[(2S,4R)-4-hydroxy-2-[[4-(4-methylthiazol-5-yl)phenyl]methylcarbamoyl]pyrrolidine-1-carbonyl]-2,2-dimethyl-propyl]amino]-7-oxo-heptanoyl]piperazin-1-yl]ethoxy]-5,7-dimethyl-1-adamantyl]methyl]-5-methyl-pyrazol-4-yl]pyridine-2-carboxylic acid]	72.8 nM		> 316 nM	68%	54%	4.7 nM		92.6%	275 nM	104%	
Cc1ncsc1-c1ccc(CNC(=O)[C@@H]2C[C@@H](O)CN2C(=O)[C@@H](NC(=O)C2(F)CC2)C(C)(C)C)c(OCC(=O)NCCCCC(=O)N2CCN(CC#Cc3ccc(OCCCc4sc(N5CCCc6c5nnc(Nc5nc7ccccc7s5)c6C)nc4C(=O)O)c(F)c3)CC2)c1 [Example 44, 2-(3-(benzo[d]thiazol-2-ylamino)-4-methyl-6,7-dihydropyrido [2,3-c]pyridazin-8(5H)-yl)-5-(3-(2-fluoro-4-(3-(4-(5-(2-(2-(((2S,4R)-1-((S)-2-(1-fluorocyclopropane-1-carboxamido)-3,3-dimethylbutanoyl)-4-hydroxypyrrolidine-2-carboxamido)methyl)-5-(4-methylthiazol-5-yl)phenoxy)acetamido)pentanoyl)piperazin-1-yl)prop-1-yn-1-yl)phenoxy)propyl)thiazole-4-carboxylic acid]		58.3%									
Cc1c(Nc2nc3ccccc3s2)nnc2c1CCCN2c1nc(C(=O)O)c(CCCOc2ccc(C#CCN3CCN(C(=O)CCCC(=O)NCCOCCNC(=O)COc4cccc5c4C(=O)N(C4CCC(=O)NC4=O)C5=O)CC3)cc2F)s1 (stereo not shown) [Example 26, 2-[3-(1,3-benzothiazol-2-ylamino)-4-methyl-6,7-dihydro-5H-pyrido[2,3-c]pyridazin-8-yl]-5-[3-[4-[3-[4-[5-[2-[2-[[2-[2-(2,6-dioxo-3-piperidyl)-1,3-dioxo-isoindolin-4-yl]oxyacetyl]amino]ethoxy]ethylamino]-5-oxo-pentanoyl]piperazin-1-yl]prop-1-ynyl]-2-fluoro-phenoxy]propyl]thiazole-4-carboxylic acid]	56.9 nM		> 316 nM	63%	51%	20.9 nM	26 nM	70.1%	212 nM	88%	

The next lines start with results.

IC50 [1]	remaining activity at 0.3 µM [3]	DC50 [4]	remaining activity at 0.01 µM [4]	remaining activity at 0.1 µM [4]	IC50 [5]	IC50 [6]	SMILES	Emax [1]	IC50 [2]	Emax [2]	NCI-H1650 Span (Amax) [1]
38.8 nM		> 316 nM	59%	55%	1.09 nM		Cc1c(Nc2nc3ccccc3s2)nnc2c1CCCN2c1nc(C(=O)O)c(CCCOc2ccc(C#CCN3CCN(C(=O)CCCCCCC(=O)NCCOCCNC(=O)COc4cccc5c4C(=O)N(C4CCC(=O)NC4=O)C5=O)CC3)cc2F)s1 (stereo not shown) [Example 25, 2-[3-(1,3-benzothiazol-2-ylamino)-4-methyl-6,7-dihydro-5H-pyrido[2,3-c]pyridazin-8-yl]-5-[3-[4-[3-[4-[8-[2-[2-[[2-[2-(2,6-dioxo-3-piperidyl)-1,3-dioxo-isoindolin-4-yl]oxyacetyl]amino]ethoxy]ethylamino]-8-oxo-octanoyl]piperazin-1-yl]prop-1-ynyl]-2-fluoro-phenoxy]propyl]thiazole-4-carboxylic acid]	74%	174 nM	87.4%	
> 1000 nM			83%	53%	64.2 nM		Cc1cc(N(C)c2nc(C(=O)O)c(CCCOc3ccc(C#CCN(C)CC(=O)NCCOCCNC(=O)COc4cccc5c4C(=O)N(C4CCC(=O)NC4=O)C5=O)cc3F)s2)nnc1Nc1nc2ccccc2s1 (stereo not shown) [Example 32, 2-[[6-(1,3-benzothiazol-2-ylamino)-5-methyl-pyridazin-3-yl]-methyl-amino]-5-[3-[4-[3-[[2-[2-[2-[[2-[2-(2,6-dioxo-3-piperidyl)-1,3-dioxo-isoindolin-4-yl]oxyacetyl]amino]ethoxy]ethylamino]-2-oxo-ethyl]-methyl-amino]prop-1-ynyl]-2-fluoro-phenoxy]propyl]thiazole-4-carboxylic acid]		> 10000 nM		—
